Data as given in patent US9447087B2, “Galactokinase inhibitors for the treatment and prevention of associated diseases and disorders” (UNIVERSITY OF UTAH RESEARCH FOUNDATION, priority 2011, dated 2016).
≈ marks a conversion by molar mass, not a printed value.

What was measured:
[1] = Solubility in PBS; assay type: physicochemical; conditions: aqueous buffer, pH 7.4, 23° C.
[2] = molecular target: CDP-ME kinase (Escherichia coli (strain K12), UniProt P62615); assay: selectivity against CDP-ME kinase (bioluminescent Kinase Glo ATP depletion, PubChem ID 2506); assay type: biochemical; conditions: up to 57 μM
Procedure: The selectivity for these analogs against CDP-ME kinase, another member of the GHMP kinase family, was performed using a bioluminescent Kinase Glo™ assay that detects ATP depletion after kinase reaction (PubChem ID 2506). […] All analogs were also tested for cytotoxicity using Promega CellTiter Glo on HEK293 cells that were treated with compounds and analyzed after 48 hours. […] In addition, the ability of these compounds to undergo redox recycling, which may lead to false positive results, was also evaluated using an endpoint colorimetric assay; this assay detects the presence of H2O2 in the kinase reaction buffer (PubChem ID 2502).

[3] = molecular target: GALK (Homo sapiens (Human), UniProt P51570); assay: primary qHTS assay for inhibitors of GALK (KinaseGlo ATP depletion); assay type: biochemical; conditions: 5 nM GALK, 35 μM ATP, 1 hr incubation
Procedure: Assay details and protocol: The primary assay monitored ATP depletion using Promega's KinaseGlo™ technology, where ATP levels are measured through luminescence generated from firefly luciferase, a bioluminescent ATP-dependent enzymes. […] This was used as the positive control for the assay. […]

[4] = test system: HEK293 cells; assay: cytotoxicity, Promega CellTiter Glo on HEK293 cells (PubChem ID 2547); assay type: cell-based; conditions: analyzed after 48 hours
Procedure: The selectivity for these analogs against CDP-ME kinase, another member of the GHMP kinase family, was performed using a bioluminescent Kinase Glo™ assay that detects ATP depletion after kinase reaction (PubChem ID 2506). […] All analogs were also tested for cytotoxicity using Promega CellTiter Glo on HEK293 cells that were treated with compounds and analyzed after 48 hours.

Chain of GALK (P51570 whole entry): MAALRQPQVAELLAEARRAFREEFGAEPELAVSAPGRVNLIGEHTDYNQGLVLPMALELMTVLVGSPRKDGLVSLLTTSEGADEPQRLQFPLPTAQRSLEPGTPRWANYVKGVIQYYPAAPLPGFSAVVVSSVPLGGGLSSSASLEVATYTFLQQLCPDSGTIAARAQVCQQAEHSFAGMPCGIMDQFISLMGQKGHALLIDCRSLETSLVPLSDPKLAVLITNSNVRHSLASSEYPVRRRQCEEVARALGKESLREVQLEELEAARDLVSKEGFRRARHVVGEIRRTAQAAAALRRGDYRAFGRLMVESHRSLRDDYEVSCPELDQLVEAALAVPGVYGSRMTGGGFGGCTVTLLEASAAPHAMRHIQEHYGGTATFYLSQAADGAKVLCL
Chain of CDP-ME kinase (P62615 whole entry, looked up): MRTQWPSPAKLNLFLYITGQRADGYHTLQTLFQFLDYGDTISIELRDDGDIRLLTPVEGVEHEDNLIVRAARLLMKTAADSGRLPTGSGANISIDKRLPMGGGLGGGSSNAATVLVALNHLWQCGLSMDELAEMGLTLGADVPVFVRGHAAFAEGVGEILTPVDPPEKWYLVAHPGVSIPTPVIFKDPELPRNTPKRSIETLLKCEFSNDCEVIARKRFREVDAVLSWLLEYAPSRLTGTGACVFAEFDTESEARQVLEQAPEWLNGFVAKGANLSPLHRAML

IC50 [3] [µM]	SMILES	solubility [1] [µg/mL]	activity against CDP-ME kinase [2]	cytotoxic effect on HEK293 cells [4]
–	O=C1CCCC2=C1C1(CCCC1)N=C(Nc1nc3ccccc3o1)N2 [NCGC00187642]	2.3 (≈ 6.84 µM)	no activity	–
5.95	Cc1ccc2oc(NC3=NC4(CCCC4)C4=C(CCCC4=O)N3)nc2c1 [Compound 26]	–	–	no cytotoxic effect
7.49	O=C1CCCC2=C1C1(CCCC1)N=C(Nc1nc3cc(Br)ccc3o1)N2 [Compound 27]	–	–	no cytotoxic effect
16.8	O=C1CCCC2=C1C1(CCC1)N=C(Nc1nc3ccccc3o1)N2 [Compound 3]	–	–	no cytotoxic effect
6.68	CC1(C)CC(=O)C2=C(C1)NC(Nc1nc3ccccc3o1)=NC21CCCC1 [Compound 8]	–	–	no cytotoxic effect
74.9	Cn1c(NC2=NC3(CCCC3)C3=C(CCCC3=O)N2)nc2ccccc21 [Compound 35]	–	–	no cytotoxic effect
37.5	O=C1CCCC2=C1C1(CCCC1)N=C(Nc1nc3cc4ccccc4cc3o1)N2 [Compound 33]	–	–	no cytotoxic effect
